Measured values published in patent publication US8247211B2, “Glycopeptide antibiotics” (American Cyanamid Company, priority 2001, dated 2012).
In brackets after ≈: the same amount, converted by molar mass.

Legend:
Experiment in all cases: In vitro antibacterial evaluation: minimum inhibitory concentration (MIC), broth dilution method
Type in all cases: cell-based
Settings in all cases: 18 hours at 35° C.
[1] = test system: Streptococcus sp.
Method in brief: (§1)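 MIC read as lowest drug level preventing visible growth. Organisms at 5×10^5 CFU/mL were exposed to a 64-0.06 μg/mL dilution series in Muller-Hinton II […] following NCCLS broth dilution standard M7-A2.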

[2] = test system: Staphylococcus sp.
Method in brief: as §1

[3] = test system: Escherichia coli
Method in brief: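 Following NCCLS approved standard M7-A2, compounds are serially diluted from 64 to 0.06 μg/mL in Muller-Hinton II […] and inoculated at 5×10^5 CFU/mL; the MIC is the minimum concentration at which growth is inhibited.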

[4] = test system: Enterococcus sp.
Method in brief: as §1

[5] = Streptococcus agalactiae (GC 4564)
[6] = Streptococcus pneumoniae (ATCC 6301)
[7] = Streptococcus pneumoniae (GC 1894)
[8] = Streptococcus pneumoniae (GC 4565)
[9] = Streptococcus pyogenes (GC 4563)
[10] = broth dilution, inoculum 5×10^5 CFU/mL
[11] = Enterococcus faecalis (GC 2242)
[12] = Enterococcus faecalis (GC 2691)
[13] = Enterococcus faecalis (GC 3059)

## Cc1ccc(COCC2OC(OC3C(CO)OC(Oc4ccc(CC5NC(=O)C(C(C)c6ccccc6)NC(=O)CNC(=O)C(CO)NC(=O)C(C(O)C6CNC(=N)N6C6OC(CO)C(O)C(O)C6O)NC(=O)C(C(O)C6CNC(=N)N6)NC5=O)cc4)C(O)C3O)C(O)C(O)C2O)cc1 (centres unmarked) [Example 234]
[1]; [5]
  MIC Streptococcus agalactiae (GC 4564): 0.5 µg/mL (≈ 0.357 µM)
[1]; [6]
  MIC Streptococcus pneumoniae (ATCC 6301): 0.25 µg/mL (≈ 0.179 µM)
[1]; [7]
  MIC Streptococcus pneumoniae (GC 1894): 0.12 µg/mL (≈ 0.0857 µM)
[1]; [8]
  MIC Streptococcus pneumoniae (GC 4565): 0.25 µg/mL (≈ 0.179 µM)
[1]; [9]
  MIC Streptococcus pyogenes (GC 4563): 0.5 µg/mL (≈ 0.357 µM)
[1]; [10]
  MIC Streptococcus agalactiae (GC 4564): 0.5 µg/mL (≈ 0.357 µM)
  MIC Streptococcus pneumoniae (ATCC 6301): 0.25 µg/mL (≈ 0.179 µM)
  MIC Streptococcus pneumoniae (GC 1894): 0.12 µg/mL (≈ 0.0857 µM)
  MIC Streptococcus pneumoniae (GC 4565): 0.25 µg/mL (≈ 0.179 µM)
  MIC Streptococcus pyogenes (GC 4563): 0.5 µg/mL (≈ 0.357 µM)
[2]
  MIC Coagulase Negative Staphylococcus (GC 4547): 1 µg/mL (≈ 0.715 µM)
  MIC Coagulase Negative Staphylococcus (GC 4548): 1 µg/mL (≈ 0.715 µM)
  MIC Coagulase Negative Staphylococcus (GC 4549): 0.5 µg/mL (≈ 0.357 µM)
  MIC Coagulase Negative Staphylococcus (GC 4551): 2 µg/mL (≈ 1.43 µM)
  MIC Coagulase Negative Staphylococcus (GC 6257): 1 µg/mL (≈ 0.715 µM)
  MIC Staphylococcus aureus (ATCC 29213): 2 µg/mL (≈ 1.43 µM)
  MIC Staphylococcus aureus (GC 1131): 2 µg/mL (≈ 1.43 µM)
  MIC Staphylococcus aureus (GC 3051): 2 µg/mL (≈ 1.43 µM)
  MIC Staphylococcus aureus (GC 3053): 2 µg/mL (≈ 1.43 µM)
  MIC Staphylococcus aureus (GC 4541): 2 µg/mL (≈ 1.43 µM)
  MIC Staphylococcus aureus (GC 4542): 2 µg/mL (≈ 1.43 µM)
  MIC Staphylococcus aureus (GC 4544): 2 µg/mL (≈ 1.43 µM)
  MIC Staphylococcus aureus (GC 4545): 2 µg/mL (≈ 1.43 µM)
  MIC Staphylococcus aureus-SMITH (GC 4543): 2 µg/mL (≈ 1.43 µM)
  MIC Staphylococcus haemolyticus (GC 4546): 1 µg/mL (≈ 0.715 µM)
[3]
  MIC Escherichia coli (ATCC 25922): 64 µg/mL (≈ 45.7 µM)
  MIC Escherichia coli (GC 4559): 64 µg/mL (≈ 45.7 µM)
  MIC Escherichia coli (GC 4560): 1 µg/mL (≈ 0.715 µM)
[4]
  MIC Enterococcus avium (GC 4558): 8 µg/mL (≈ 5.72 µM)
  MIC Enterococcus faecalis (ATCC 29212): 8 µg/mL (≈ 5.72 µM)
  MIC Enterococcus faecalis (GC 4552): 8 µg/mL (≈ 5.72 µM)
  MIC Enterococcus faecalis (GC 4553): 8 µg/mL (≈ 5.72 µM)
  MIC Enterococcus faecalis (GC 4554): 8 µg/mL (≈ 5.72 µM)
  MIC Enterococcus faecalis (GC 6189): 8 µg/mL (≈ 5.72 µM)
  MIC Enterococcus faecium (GC 2243): 8 µg/mL (≈ 5.72 µM)
  MIC Enterococcus faecium (GC 4556): 8 µg/mL (≈ 5.72 µM)
  MIC Enterococcus faecium (GC 4557): 2 µg/mL (≈ 1.43 µM)
[4]; [11]
  MIC Enterococcus faecalis (GC 2242): 4 µg/mL (≈ 2.86 µM)
[4]; [12]
  MIC Enterococcus faecalis (GC 2691): 8 µg/mL (≈ 5.72 µM)
[4]; [13]
  MIC Enterococcus faecalis (GC 3059): 8 µg/mL (≈ 5.72 µM)
[4]; [10]
  MIC Enterococcus faecalis (GC 2242): 4 µg/mL (≈ 2.86 µM)
  MIC Enterococcus faecalis (GC 2691): 8 µg/mL (≈ 5.72 µM)
  MIC Enterococcus faecalis (GC 3059): 8 µg/mL (≈ 5.72 µM)

## CC(c1ccccc1)C1NC(=O)CNC(=O)C(CO)NC(=O)C(C(O)C2CNC(=N)N2C2OC(CO)C(O)C(O)C2O)NC(=O)C(C(O)C2CNC(=N)N2)NC(=O)C(Cc2ccc(OC3OC(CO)C(OC4OC(COCc5ccc(Oc6ccccc6)cc5)C(O)C(O)C4O)C(O)C3O)cc2)NC1=O (stereo not drawn) [Example 236, Cyclo[glycyl-β-methylphenylalanyl-O-[4-O-[6-O-(4-phenoxybenzyl)hexopyranosyl]hexopyranosyl]tyrosyl-3-(2-iminoimidazolidin-4-yl)seryl-3-(3-hexopyranosyl-2-iminoimidazolidin-4-yl)serylseryl]]
[1]; [5]
  MIC Streptococcus agalactiae (GC 4564): 0.12 µg/mL (≈ 0.0812 µM)
[1]; [6]
  MIC Streptococcus pneumoniae (ATCC 6301): <0.06 µg/mL
[1]; [7]
  MIC Streptococcus pneumoniae (GC 1894): <0.06 µg/mL
[1]; [8]
  MIC Streptococcus pneumoniae (GC 4565): <0.06 µg/mL
[1]; [9]
  MIC Streptococcus pyogenes (GC 4563): <0.06 µg/mL
[1]; [10]
  MIC Streptococcus agalactiae (GC 4564): 0.12 µg/mL (≈ 0.0812 µM)
  MIC Streptococcus pneumoniae (ATCC 6301): <0.06 µg/mL
  MIC Streptococcus pneumoniae (GC 1894): <0.06 µg/mL
  MIC Streptococcus pneumoniae (GC 4565): <0.06 µg/mL
  MIC Streptococcus pyogenes (GC 4563): <0.06 µg/mL
[2]
  MIC Coagulase Negative Staphylococcus (GC 4547): 2 µg/mL (≈ 1.35 µM)
  MIC Coagulase Negative Staphylococcus (GC 4548): 0.5 µg/mL (≈ 0.338 µM)
  MIC Coagulase Negative Staphylococcus (GC 4549): 0.5 µg/mL (≈ 0.338 µM)
  MIC Coagulase Negative Staphylococcus (GC 4551): 2 µg/mL (≈ 1.35 µM)
  MIC Coagulase Negative Staphylococcus (GC 6257): 1 µg/mL (≈ 0.677 µM)
  MIC Staphylococcus aureus (ATCC 29213): 2 µg/mL (≈ 1.35 µM)
  MIC Staphylococcus aureus (GC 1131): 2 µg/mL (≈ 1.35 µM)
  MIC Staphylococcus aureus (GC 3051): 2 µg/mL (≈ 1.35 µM)
  MIC Staphylococcus aureus (GC 3053): 2 µg/mL (≈ 1.35 µM)
  MIC Staphylococcus aureus (GC 4541): 2 µg/mL (≈ 1.35 µM)
  MIC Staphylococcus aureus (GC 4542): 4 µg/mL (≈ 2.71 µM)
  MIC Staphylococcus aureus (GC 4544): 2 µg/mL (≈ 1.35 µM)
  MIC Staphylococcus aureus (GC 4545): 2 µg/mL (≈ 1.35 µM)
  MIC Staphylococcus aureus-SMITH (GC 4543): 2 µg/mL (≈ 1.35 µM)
  MIC Staphylococcus haemolyticus (GC 4546): 2 µg/mL (≈ 1.35 µM)
[3]
  MIC Escherichia coli (ATCC 25922): >64 µg/mL
  MIC Escherichia coli (GC 4559): >64 µg/mL
  MIC Escherichia coli (GC 4560): 1 µg/mL (≈ 0.677 µM)
[4]
  MIC Enterococcus avium (GC 4558): 2 µg/mL (≈ 1.35 µM)
  MIC Enterococcus faecalis (ATCC 29212): 4 µg/mL (≈ 2.71 µM)
  MIC Enterococcus faecalis (GC 4552): 4 µg/mL (≈ 2.71 µM)
  MIC Enterococcus faecalis (GC 4553): 4 µg/mL (≈ 2.71 µM)
  MIC Enterococcus faecalis (GC 4554): 4 µg/mL (≈ 2.71 µM)
  MIC Enterococcus faecalis (GC 6189): 2 µg/mL (≈ 1.35 µM)
  MIC Enterococcus faecium (GC 2243): 4 µg/mL (≈ 2.71 µM)
  MIC Enterococcus faecium (GC 4556): 4 µg/mL (≈ 2.71 µM)
  MIC Enterococcus faecium (GC 4557): 2 µg/mL (≈ 1.35 µM)
[4]; [11]
  MIC Enterococcus faecalis (GC 2242): 4 µg/mL (≈ 2.71 µM)
[4]; [12]
  MIC Enterococcus faecalis (GC 2691): 2 µg/mL (≈ 1.35 µM)
[4]; [13]
  MIC Enterococcus faecalis (GC 3059): 2 µg/mL (≈ 1.35 µM)
[4]; [10]
  MIC Enterococcus faecalis (GC 2242): 4 µg/mL (≈ 2.71 µM)
  MIC Enterococcus faecalis (GC 2691): 2 µg/mL (≈ 1.35 µM)
  MIC Enterococcus faecalis (GC 3059): 2 µg/mL (≈ 1.35 µM)
